According to patent US20140228384A1, “ASSAYS AND BIOMARKERS FOR LRRK2” (Genentech, Inc., priority 2011, published 2014):

Columns and labels:
[1] = tested on: hippocampal neurons derived from LRRK2 BAC transgenic mice; settings: dose-dependent manner
LRRK2 = LRRK2 (Homo sapiens, UniProt Q5S007); assay: biochemical
Sequence of LRRK2 (Q5S007 whole entry): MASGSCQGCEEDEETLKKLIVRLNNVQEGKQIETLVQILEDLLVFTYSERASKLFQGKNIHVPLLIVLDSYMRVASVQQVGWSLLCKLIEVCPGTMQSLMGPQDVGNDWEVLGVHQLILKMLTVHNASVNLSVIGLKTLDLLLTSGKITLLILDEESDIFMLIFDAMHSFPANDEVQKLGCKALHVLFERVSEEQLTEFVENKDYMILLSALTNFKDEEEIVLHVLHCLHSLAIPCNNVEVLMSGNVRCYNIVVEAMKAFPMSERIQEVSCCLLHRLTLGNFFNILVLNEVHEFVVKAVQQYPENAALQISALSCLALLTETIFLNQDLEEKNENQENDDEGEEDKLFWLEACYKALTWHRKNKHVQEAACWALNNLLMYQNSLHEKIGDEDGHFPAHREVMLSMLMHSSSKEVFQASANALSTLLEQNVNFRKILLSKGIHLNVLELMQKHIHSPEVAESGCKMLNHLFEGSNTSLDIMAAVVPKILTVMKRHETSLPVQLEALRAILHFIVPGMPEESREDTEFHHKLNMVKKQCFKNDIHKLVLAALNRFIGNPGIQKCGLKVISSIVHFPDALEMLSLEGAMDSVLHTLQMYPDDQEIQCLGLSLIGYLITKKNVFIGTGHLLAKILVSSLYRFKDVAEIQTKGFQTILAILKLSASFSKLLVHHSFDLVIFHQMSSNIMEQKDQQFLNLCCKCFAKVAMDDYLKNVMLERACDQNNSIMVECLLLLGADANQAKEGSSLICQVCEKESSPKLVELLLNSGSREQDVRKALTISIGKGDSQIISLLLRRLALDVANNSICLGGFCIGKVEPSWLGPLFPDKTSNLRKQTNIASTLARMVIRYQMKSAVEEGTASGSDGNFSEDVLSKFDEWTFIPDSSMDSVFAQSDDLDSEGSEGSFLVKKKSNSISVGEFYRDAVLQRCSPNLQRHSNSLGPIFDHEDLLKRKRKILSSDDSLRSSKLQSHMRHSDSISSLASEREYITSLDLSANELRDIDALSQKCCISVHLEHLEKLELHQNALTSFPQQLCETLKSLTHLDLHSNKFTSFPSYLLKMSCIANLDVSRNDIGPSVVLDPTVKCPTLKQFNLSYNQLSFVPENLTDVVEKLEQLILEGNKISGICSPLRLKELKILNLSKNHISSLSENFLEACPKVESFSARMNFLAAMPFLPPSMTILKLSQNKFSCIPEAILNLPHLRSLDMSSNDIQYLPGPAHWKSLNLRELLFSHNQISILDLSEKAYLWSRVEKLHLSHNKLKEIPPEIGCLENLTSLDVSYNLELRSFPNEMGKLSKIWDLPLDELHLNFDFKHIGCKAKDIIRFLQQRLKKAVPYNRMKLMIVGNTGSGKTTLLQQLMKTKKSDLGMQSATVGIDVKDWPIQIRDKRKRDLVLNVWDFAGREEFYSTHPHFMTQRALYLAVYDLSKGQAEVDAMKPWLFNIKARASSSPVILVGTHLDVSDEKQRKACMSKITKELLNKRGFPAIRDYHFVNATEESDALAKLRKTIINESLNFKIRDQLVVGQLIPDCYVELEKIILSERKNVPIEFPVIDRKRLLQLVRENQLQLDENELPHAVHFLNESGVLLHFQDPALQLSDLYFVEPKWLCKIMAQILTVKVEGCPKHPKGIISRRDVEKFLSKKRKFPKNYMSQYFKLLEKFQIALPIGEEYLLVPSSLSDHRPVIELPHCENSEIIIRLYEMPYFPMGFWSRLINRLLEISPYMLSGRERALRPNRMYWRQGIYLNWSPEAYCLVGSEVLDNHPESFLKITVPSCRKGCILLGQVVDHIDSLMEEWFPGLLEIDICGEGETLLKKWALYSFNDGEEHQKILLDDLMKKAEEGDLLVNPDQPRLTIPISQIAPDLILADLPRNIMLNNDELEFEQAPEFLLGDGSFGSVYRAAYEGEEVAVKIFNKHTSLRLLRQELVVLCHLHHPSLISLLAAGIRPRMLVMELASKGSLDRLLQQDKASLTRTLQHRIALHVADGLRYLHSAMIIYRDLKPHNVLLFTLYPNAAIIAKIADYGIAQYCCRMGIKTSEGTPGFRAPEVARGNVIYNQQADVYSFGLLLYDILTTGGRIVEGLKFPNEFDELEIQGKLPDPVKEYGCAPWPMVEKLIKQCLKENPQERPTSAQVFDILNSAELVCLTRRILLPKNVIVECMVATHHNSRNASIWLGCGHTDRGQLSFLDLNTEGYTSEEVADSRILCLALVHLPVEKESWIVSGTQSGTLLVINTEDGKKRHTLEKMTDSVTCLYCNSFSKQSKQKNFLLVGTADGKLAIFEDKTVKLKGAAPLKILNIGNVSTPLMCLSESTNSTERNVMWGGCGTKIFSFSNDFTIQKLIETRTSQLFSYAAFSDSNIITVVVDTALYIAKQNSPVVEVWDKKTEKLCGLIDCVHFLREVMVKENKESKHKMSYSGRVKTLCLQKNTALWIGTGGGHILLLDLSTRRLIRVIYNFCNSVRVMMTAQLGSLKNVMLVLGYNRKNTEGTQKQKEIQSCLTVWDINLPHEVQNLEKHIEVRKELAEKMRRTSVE

Ki (LRRK2): ~4 nM
SMILES: CNc1nc(Nc2ccc(C(=O)N3CCOCC3)cc2OC)ncc1C(F)(F)F [G1023, [3-methoxy-4-(4-methylamino-5-trifluoromethyl-pyrimidin-2-ylamino)-phenyl]-morpholin-4-yl-methanone]
neurite outgrowth defect (total neurite length) [1]: reversed neurite outgrowth defect
